In patent US6777402B2, “Water-soluble porphyrin derivatives for photodynamic therapy, their use and manufacture” (CeramOptec Industries, Inc., priority 2001, dated 2004):
Values after ≈ are worked out from the molar mass of the structure shown.

Legend:
physchem = conditions: water
[1] = Water solubility of salts with hydrophilic amines; conditions: as salts with hydrophilic amines

Molecule	solubility (physchem)	water solubility compared with the respective chlorin e6 salts [1]
C=Cc1c(C)c2cc3nc(c(CC(=O)O)c4[nH]c(cc5nc(cc1[nH]2)C(C)=C5CC)c(C)c4C(=O)O)[C@@H](CCC(=O)O)[C@@H]3C [(7), chlorin e6]	> 5000 µg/mL	
C=Cc1c(C)c2cc3nc(c4c5[nH]c(cc6nc(cc1[nH]2)C(C)=C6CC)c(C)c5C(=O)OC4=O)[C@@H](CCC(=O)O)[C@@H]3C [(8), purpurin 18]		remarkably lower water solubility
C=Cc1c(C)c2cc3nc(c(C(=O)O)c4[nH]c(cc5nc(cc1[nH]2)C(C)=C5CC)c(C)c4C(=O)O)[C@@H](CCC(=O)O)[C@@H]3C [(9), chlorin p6]		remarkably lower water solubility
CCC1=C(C)c2cc3[nH]c(cc4nc(c5c6[nH]c(cc1n2)c(C)c6C(=O)C5)[C@@H](CCC(=O)O)[C@@H]4C)c(C)c3CC [(36), mesopyropheophorbide a]	40 µg/mL (≈ 74.5 µM)	
pheophorbide a [(4)]		remarkably lower water solubility
